From patent publication US20230357447A1, “TUMOR ACTIVATED MULTISPECIFIC ANTIBODIES FOR TARGETING CD28 AND PD-L1 AND METHODS OF USE THEREOF” (Janux Therapeutics, Inc., priority 2022, published 2023)

What was measured:
[1] = tested on: anti-CD28 scFv (SEQ ID NO: 9); assay: Octet bio-layer interferometry kinetic binding of anti-CD28 scFv to peptides; parameters: species or system human; conditions: Octet RED96; biotinylated peptide loaded on streptavidin biosensor; anti-CD28 scFv in solution; 1:1 binding model
Description: (§1) Association and dissociation signals were recorded in real time and analyzed using a 1:1 binding model within the instrument software. Analysis using a 1:1 binding model enabled the calculation of the on and off rate constants as well as affinity, KD.
as §1

anti-CD28 scFv = assay: Phage binding ELISA (panning) of clonal phage on anti-CD28 scFv, with or without CD28 soluble protein; conditions: clonal phage supernatant
Method in brief: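 Wells pre-incubated with blocking buffer plus CD28 soluble protein or blocking buffer alone, then crude clonal phage supernatants added without washing for a short incubation. After washing, bound phage detected with HRP-conjugated anti-M13 antibody.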

[2] = background (no anti-CD28 scFv signal)

Compound	Phage binding ELISA Backgroud signal (anti-CD28 scFv; [2])	further results
CC[C@H](C)[C@@H]1NC(=O)[C@@H]2CCCN2C(=O)[C@@H](NC(=O)[C@H](Cc2c[nH]c3ccccc23)NC(=O)[C@H](CC(=O)O)NC(=O)[C@@H](N)CCSC)CSSC[C@@H](C(=O)N[C@@H](Cc2ccccc2)C(=O)N[C@@H](Cc2ccccc2)C(=O)O)NC(=O)[C@H](CCC(=O)O)NC(=O)[C@H](CC(N)=O)NC(=O)[C@H](Cc2c[nH]c3ccccc23)NC(=O)[C@H](CC(C)C)NC(=O)[C@H](CC(=O)O)NC1=O [Peptide-31]		kdis [1]: 0.00369 s⁻¹
CC[C@H](C)[C@@H]1NC(=O)[C@@H]2CCCN2C(=O)[C@@H](NC(=O)[C@H](Cc2c[nH]c3ccccc23)NC(=O)[C@H](CC(=O)O)NC(=O)[C@@H](N)CCSC)CSSC[C@@H](C(=O)N[C@@H](Cc2ccccc2)C(=O)N[C@@H](CC(N)=O)C(=O)O)NC(=O)[C@H](C(C)C)NC(=O)[C@H](Cc2c[nH]cn2)NC(=O)[C@H](Cc2c[nH]c3ccccc23)NC(=O)[C@H](CC(C)C)NC(=O)[C@H](Cc2c[nH]cn2)NC1=O [Peptide-32]		kdis [1]: 0.00295 s⁻¹
CC[C@H](C)[C@@H]1NC(=O)[C@@H]2CCCN2C(=O)[C@@H](NC(=O)[C@H](Cc2c[nH]c3ccccc23)NC(=O)[C@H](CC(=O)O)NC(=O)[C@@H](N)CCSC)CSSC[C@@H](C(=O)N[C@@H](Cc2ccccc2)C(=O)N[C@@H](CC(N)=O)C(=O)O)NC(=O)[C@H](CCC(=O)O)NC(=O)[C@H](CO)NC(=O)[C@H](Cc2c[nH]c3ccccc23)NC(=O)[C@H](CC(C)C)NC(=O)[C@H](Cc2ccc(O)cc2)NC1=O [Peptide-33]		kdis [1]: 0.00153 s⁻¹
CC[C@H](C)[C@@H]1NC(=O)[C@H](CC(=O)O)NC(=O)[C@H](CCCCN)NC(=O)[C@@H]2CCCN2C(=O)[C@@H](NC(=O)[C@H](Cc2c[nH]c3ccccc23)NC(=O)[C@H](CC(N)=O)NC(=O)[C@@H](N)CCSC)CSSC[C@@H](C(=O)N[C@@H](Cc2ccccc2)C(=O)N[C@@H](CC(N)=O)C(=O)O)NC(=O)[C@H](CC(C)C)NC(=O)[C@H](Cc2ccc(O)cc2)NC(=O)[C@H](Cc2c[nH]c3ccccc23)NC1=O [Peptide-34]		kdis [1]: 0.00684 s⁻¹
CSCC[C@@H]1NC(=O)[C@H](Cc2c[nH]cn2)NC(=O)[C@H](CC(C)C)NC(=O)[C@@H]2CCCN2C(=O)[C@@H](NC(=O)[C@H](Cc2c[nH]c3ccccc23)NC(=O)[C@H](CC(=O)O)NC(=O)[C@@H](N)CCSC)CSSC[C@@H](C(=O)N[C@@H](Cc2ccccc2)C(=O)N[C@@H](CO)C(=O)O)NC(=O)[C@H](CCC(=O)O)NC(=O)[C@H](Cc2c[nH]cn2)NC(=O)[C@H](Cc2c[nH]c3ccccc23)NC1=O [Peptide-35]		kdis [1]: 0.00497 s⁻¹
CSCC[C@H](N)C(=O)N[C@@H](CC(=O)O)C(=O)N[C@@H](Cc1c[nH]c2ccccc12)C(=O)N[C@H]1CSSC[C@@H](C(=O)N[C@@H](Cc2ccccc2)C(=O)N[C@@H](CC(N)=O)C(=O)O)NC(=O)[C@H](CCC(=O)O)NC(=O)[C@H](CC(N)=O)NC(=O)[C@H](Cc2c[nH]c3ccccc23)NC(=O)[C@H](CC(C)C)NC(=O)[C@H](Cc2ccc(O)cc2)NC(=O)[C@H](CC(C)C)NC(=O)[C@@H]2CCCN2C1=O [Peptide-36]		kdis [1]: 0.00252 s⁻¹
CSCC[C@H](N)C(=O)N[C@@H](CC(=O)O)C(=O)N[C@@H](Cc1c[nH]c2ccccc12)C(=O)N[C@H]1CSSC[C@@H](C(=O)N[C@@H](Cc2ccccc2)C(=O)N[C@@H](C)C(=O)O)NC(=O)[C@H](CC(C)C)NC(=O)[C@H](CC(=O)O)NC(=O)[C@H](Cc2c[nH]c3ccccc23)NC(=O)[C@H](CC(C)C)NC(=O)[C@H](CC(=O)O)NC(=O)[C@H](CCCNC(=N)N)NC(=O)[C@@H]2CCCN2C1=O [Peptide-37]		kdis [1]: 0.00351 s⁻¹
Phage-407 (MNWCPIHMWNQCFA)	0.085	
Phage-408 (MFWCPKDMWAECFA)	0.099	
Phage-409 (LHWCPITMWTYCYY)	0.229	
Phage-410 (IDWCPRYMWHECFF)	0.098	
Phage-411 (MSWCPRFMWHECFN)	0.081	
Phage-412 (QHWCPRDMWNDCYA)	0.066	
Phage-413 (MDWCPSDMWSNCFN)	0.070	
Phage-414 (LYWCPRDMWAYCYS)	0.068	
Phage-415 (MDWCPMYMWHKCFH)	0.099	
Phage-417 (IYWCPTAMWNRCSA)	0.086	
Phage-418 (MYWCPKYMWSECFA)	0.072	
Phage-419 (VDWCPAHMWNECYN)	0.208	
Phage-420 (MFWCPSTMWNRCFD)	0.063	
Phage-422 (MYWCPINMWDYCYA)	0.122	
Phage-423 (INLCPTPMWNRCWL)	0.119	
Phage-424 (ITQCPSTMWNRCSV)	0.067	
Phage-425 (MDLCPTAMWNRCFY)	0.063	
Phage-426 (MFLCPSAMWNRCFY)	0.069	

Compound	Phage binding ELISA Backgroud signal (anti-CD28 scFv; [2])	further results
Phage-427 (VILCPTTMWNRCFH)	0.100	
Phage-428 (MNWCPSTMWNRCLT)	0.067	
Phage-430 (IHLCHWVPWIKCSH)	2.516	
Phage-431 (MAWCPADQWHECFN)	0.076	
Phage-432 (IDWCPIIQGLPCFA)	0.058	
Phage-433 (MAWCPWAQFDECLA)	0.073	
Phage-434 (IVWCPTTQWNRCAT)	0.113	
Phage-435 (MDWCPRDRWVDCYA)	0.157	
Phage-436 (MDWCPRDRWADCFN)	0.063	
Phage-437 (MDWCPVDRWADCFN)	0.071	
Phage-438 (MDWCPMSRWAFCFD)	0.071	
Phage-439 (MDWCPRDRWDVCFA)	0.073	
Phage-440 (MDWCPRDRWVDCFN)	0.106	
Phage-441 (MDWCPRDRWDDCFF)	0.114	
Phage-442 (IYWCPIDRWNDCYN)	0.177	
Phage-443 (MDWCPMTRWNDCYF)	0.081	
Phage-444 (VNQCTRYRWAECLN)	0.465	
Phage-445 (MDWCPRARWHDCFF)	0.097	
Phage-446 (MDWCPRDRWDDCFN)	0.069	
Phage-448 (MAWCPWASFDECLA)	0.104	
Phage-449 (MVDCPLISFDECLA)	0.246	
Phage-450 (EDWCPTDVWPYCFS)	0.100	
Phage-451 (MDWCPRFWWHECYA)	0.246	
Phage-452 (MDWCPRDWWHMCFN)	0.100	
Phage-453 (MDWCPSDYWYVCFA)		Phage binding ELISA Backgroud signal (anti-CD28 scFv; background signal): 0.065
